Measurements published in ChEMBL document CHEMBL3407356, “Design, synthesis, biological evaluation and molecular modeling of dihydropyrazole sulfonamide derivatives as potential COX-1/COX-2 inhibitors” (Bioorg Med Chem Lett, 2015).

Experiments:
[1] = target: Prostaglandin G/H synthase 1 (Homo sapiens, UniProt P23219); experiment: Inhibition of human recombinant COX1 by ELISA
MCF7 = experiment: Antiproliferative activity against human MCF7 cells after 24 hrs by MTT assay; type: functional, cell-based; conditions: MCF7, 24 h
[2] = Cytotoxicity against human 293T cells after 24 hrs by MTT assay; type: cell-based; conditions: HEK-293T cells
HeLa = experiment: Antiproliferative activity against human HeLa cells after 24 hrs by MTT assay; type: functional, cell-based
[3] = Antiproliferative activity against mouse B16F10 cells after 24 hrs by MTT assay; type: functional, cell-based; conditions: B16-F10, 24 h
[4] = target: T1, Prostaglandin G/H synthase 2 (Homo sapiens, UniProt P35354); experiment: Inhibition of human recombinant COX2 by ELISA
T1 sequence (P35354 whole entry): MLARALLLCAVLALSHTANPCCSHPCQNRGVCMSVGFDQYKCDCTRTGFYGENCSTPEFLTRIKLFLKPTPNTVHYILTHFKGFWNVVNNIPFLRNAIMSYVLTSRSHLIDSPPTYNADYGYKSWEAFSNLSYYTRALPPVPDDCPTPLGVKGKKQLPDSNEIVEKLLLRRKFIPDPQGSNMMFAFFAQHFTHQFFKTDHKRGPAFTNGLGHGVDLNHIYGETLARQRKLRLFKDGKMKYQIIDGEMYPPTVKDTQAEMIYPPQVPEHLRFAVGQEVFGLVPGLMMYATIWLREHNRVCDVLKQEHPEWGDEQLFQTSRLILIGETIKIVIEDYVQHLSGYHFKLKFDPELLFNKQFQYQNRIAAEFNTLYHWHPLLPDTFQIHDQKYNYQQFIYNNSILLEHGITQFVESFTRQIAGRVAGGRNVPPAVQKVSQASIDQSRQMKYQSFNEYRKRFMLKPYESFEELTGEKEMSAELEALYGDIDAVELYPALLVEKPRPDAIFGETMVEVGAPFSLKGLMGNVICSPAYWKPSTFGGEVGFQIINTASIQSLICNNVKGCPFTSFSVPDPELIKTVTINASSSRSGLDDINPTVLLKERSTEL

Prostaglandin G/H synthase 1, sequence (P23219 whole entry): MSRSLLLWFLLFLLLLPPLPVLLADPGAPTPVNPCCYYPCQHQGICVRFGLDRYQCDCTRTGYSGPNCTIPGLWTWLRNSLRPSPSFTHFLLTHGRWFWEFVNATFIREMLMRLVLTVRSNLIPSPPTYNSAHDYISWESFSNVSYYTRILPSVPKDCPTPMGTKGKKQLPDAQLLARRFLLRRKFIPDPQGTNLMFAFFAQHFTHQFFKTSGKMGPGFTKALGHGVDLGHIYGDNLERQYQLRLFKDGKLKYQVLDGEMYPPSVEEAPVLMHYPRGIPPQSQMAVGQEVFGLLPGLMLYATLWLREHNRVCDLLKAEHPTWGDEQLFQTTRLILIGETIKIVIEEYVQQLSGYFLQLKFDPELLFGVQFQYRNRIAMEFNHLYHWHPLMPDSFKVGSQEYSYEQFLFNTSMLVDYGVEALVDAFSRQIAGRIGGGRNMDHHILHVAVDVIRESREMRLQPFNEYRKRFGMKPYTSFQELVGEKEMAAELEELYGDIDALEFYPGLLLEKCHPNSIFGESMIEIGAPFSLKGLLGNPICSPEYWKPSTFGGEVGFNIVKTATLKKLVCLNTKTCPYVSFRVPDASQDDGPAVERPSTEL

Row | SMILES | IC50 [1] [µM] | IC50 (MCF7) [µM] | CC50 at 24 h [2] [µM] | IC50 (HeLa) [µM] | IC50 [3] [µM] | IC50 [4] [µM]
1 | NS(=O)(=O)c1ccc(N2N=C3c4ccccc4CCC3C2c2ccccc2)cc1 (configuration not stated) | > 100 | 5.34 | 66.9 | 25.5 | 5.01 | 8.34
2 | Cc1ccccc1C1C2CCc3ccccc3C2=NN1c1ccc(S(N)(=O)=O)cc1 (configuration not stated) | 99.9 | 8.29 | 70.8 | 30.1 | 2.93 | 3.28
3 | Cc1cccc(C2C3CCc4ccccc4C3=NN2c2ccc(S(N)(=O)=O)cc2)c1 (configuration not stated) | 91.5 | 29.4 | 67.2 | 18 | 9.06 | 2.48
4 | Cc1ccc(C2C3CCc4ccccc4C3=NN2c2ccc(S(N)(=O)=O)cc2)cc1 (configuration not stated) | 88.4 | 4.24 | 63.6 | 9.86 | 17.1 | 2.16
5 | COc1ccccc1C1C2CCc3ccccc3C2=NN1c1ccc(S(N)(=O)=O)cc1 (configuration not stated) | 96.2 | 59.1 | 67.2 | 14.4 | 11.8 | 2.63
6 | COc1cccc(C2C3CCc4ccccc4C3=NN2c2ccc(S(N)(=O)=O)cc2)c1 (configuration not stated) | 85.5 | 10.4 | 68.2 | 19.1 | 1.78 | 1.12
7 | NS(=O)(=O)c1ccc(N2N=C3c4ccccc4CCC3C2c2ccccc2F)cc1 (configuration not stated) | > 100 | 13.2 | 57.9 | 37.2 | 3.18 | 11.9
8 | NS(=O)(=O)c1ccc(N2N=C3c4ccccc4CCC3C2c2cccc(F)c2)cc1 (configuration not stated) | > 100 | 59.1 | 57.9 | 5.06 | 11.2 | 4.83
9 | NS(=O)(=O)c1ccc(N2N=C3c4ccccc4CCC3C2c2ccc(F)cc2)cc1 (configuration not stated) | > 100 | 6.89 | 59.8 | 22.4 | 3.06 | 15.3
10 | NS(=O)(=O)c1ccc(N2N=C3c4ccccc4CCC3C2c2ccccc2Cl)cc1 (configuration not stated) | > 100 | 25.9 | 65.3 | 13.7 | 20.1 | 4.92
11 | NS(=O)(=O)c1ccc(N2N=C3c4ccccc4CCC3C2c2ccccc2Br)cc1 (configuration not stated) | > 100 | 5.83 | 61.1 | 7.21 | 3.56 | 12.7
12 | NS(=O)(=O)c1ccc(N2N=C3c4ccccc4CCC3C2c2cccc(Br)c2)cc1 (configuration not stated) | 100 | 53.5 | 52.6 | 11.7 | 28 | 3.48
13 | NS(=O)(=O)c1ccc(N2N=C3c4ccccc4CCC3C2c2ccc(Br)cc2)cc1 (configuration not stated) | > 100 | 36.5 | 69.3 | 6.31 | 28.8 | 26.3
14 | NS(=O)(=O)c1ccc(N2N=C3c4ccccc4CCC3C2c2cccc(O)c2)cc1 (configuration not stated) | 86.2 | 11 | 69.2 | 4.82 | 33.3 | 1.76
15 | NS(=O)(=O)c1ccc(N2N=C3c4ccccc4CCC3C2c2ccc(C(F)(F)F)cc2)cc1 (configuration not stated) | > 100 | 33.9 | 55.2 | 11.2 | 5.72 | 18.3
16 | NS(=O)(=O)c1ccc(N2N=C3c4ccccc4CCC3C2c2ccc(Cl)cc2Cl)cc1 (configuration not stated) | > 100 | 13.7 | 64 | 3.57 | 53.2 | 32.3
17 | NS(=O)(=O)c1ccc(N2N=C3c4ccccc4CCC3C2c2c(F)cccc2Cl)cc1 (configuration not stated) | 99.8 | 24.4 | 68.3 | 5.28 | 37.4 | 3.66
18 | Cc1ccccc1C1C2COc3ccccc3C2=NN1c1ccc(S(N)(=O)=O)cc1 (configuration not stated) | 59.4 | 41.2 | 64.8 | 36.7 | 22.2 | 0.46
19 | COc1ccccc1C1C2COc3ccccc3C2=NN1c1ccc(S(N)(=O)=O)cc1 (configuration not stated) | 68.5 | 42.9 | 83.2 | 13.9 | 10.2 | 0.33
20 | COc1ccc(C2C3COc4ccccc4C3=NN2c2ccc(S(N)(=O)=O)cc2)cc1 (configuration not stated) | 78.1 | 20.2 | 69.5 | 7.29 | 15.8 | 1.02
21 | NS(=O)(=O)c1ccc(N2N=C3c4ccccc4OCC3C2c2ccccc2F)cc1 (configuration not stated) | > 100 | 30.5 | 70.5 | 9.87 | 35.2 | 7.24
22 | NS(=O)(=O)c1ccc(N2N=C3c4ccccc4OCC3C2c2ccccc2Cl)cc1 (configuration not stated) | 86.8 | 23.9 | 75 | 13.2 | 12.1 | 2.28
23 | NS(=O)(=O)c1ccc(N2N=C3c4ccccc4OCC3C2c2ccc(Cl)cc2)cc1 (configuration not stated) | > 100 | 28 | 61.4 | 7.73 | 3.76 | 8.24
24 | NS(=O)(=O)c1ccc(N2N=C3c4ccccc4OCC3C2c2ccccc2Br)cc1 (configuration not stated) | 90.2 | 27.8 | 81.6 | 2.94 | 12 | 1.26
25 | NS(=O)(=O)c1ccc(N2N=C3c4ccccc4OCC3C2c2ccc(Br)cc2)cc1 (configuration not stated) | > 100 | 46 | 63.2 | 8.4 | 7.3 | 6.88
26 | NS(=O)(=O)c1ccc(N2N=C3c4ccccc4OCC3C2c2ccc(Cl)cc2Cl)cc1 (configuration not stated) | 96.3 | 46.8 | 57.1 | 17.5 | 4.76 | 2.74
27 | NS(=O)(=O)c1ccc(N2N=C3c4ccccc4OCC3C2c2c(F)cccc2Cl)cc1 (configuration not stated) | > 100 | 40.5 | 66.2 | 7.76 | 8.49 | 16.3
28 | Cc1ccc(-c2cc(C(F)(F)F)nn2-c2ccc(S(N)(=O)=O)cc2)cc1 [CELECOXIB] |  | 5.94 | 72.4 | 7.35 | 4.56 | 
29 | COc1cc2ncnc(Nc3ccc(F)c(Cl)c3)c2cc1OCCCN1CCOCC1 [GEFITINIB] |  |  | 52 |  |  | 
